Results taken from ChEMBL document CHEMBL4417636, “Small molecule inhibitors of pendrin ion exchange and pharmaceutical compositions” (2017).
Active and inactive are the calls of the source. No cut-off for these calls is given here.

Columns and labels:
Pendrin (Mus musculus) = target: T1, Pendrin (Mus musculus) (UniProt Q9R155); assay: Inhibition of mouse pendrin expressed in FRT cells co-expressing YFP-HIF assessed as reduction in pendrin-mediated exchange of Cl(-) with I(-) by pH-sensitive fluorescent probe BCECF-AM based fluorescence assay relative to control; type: cell-based
T1 sequence (whole entry): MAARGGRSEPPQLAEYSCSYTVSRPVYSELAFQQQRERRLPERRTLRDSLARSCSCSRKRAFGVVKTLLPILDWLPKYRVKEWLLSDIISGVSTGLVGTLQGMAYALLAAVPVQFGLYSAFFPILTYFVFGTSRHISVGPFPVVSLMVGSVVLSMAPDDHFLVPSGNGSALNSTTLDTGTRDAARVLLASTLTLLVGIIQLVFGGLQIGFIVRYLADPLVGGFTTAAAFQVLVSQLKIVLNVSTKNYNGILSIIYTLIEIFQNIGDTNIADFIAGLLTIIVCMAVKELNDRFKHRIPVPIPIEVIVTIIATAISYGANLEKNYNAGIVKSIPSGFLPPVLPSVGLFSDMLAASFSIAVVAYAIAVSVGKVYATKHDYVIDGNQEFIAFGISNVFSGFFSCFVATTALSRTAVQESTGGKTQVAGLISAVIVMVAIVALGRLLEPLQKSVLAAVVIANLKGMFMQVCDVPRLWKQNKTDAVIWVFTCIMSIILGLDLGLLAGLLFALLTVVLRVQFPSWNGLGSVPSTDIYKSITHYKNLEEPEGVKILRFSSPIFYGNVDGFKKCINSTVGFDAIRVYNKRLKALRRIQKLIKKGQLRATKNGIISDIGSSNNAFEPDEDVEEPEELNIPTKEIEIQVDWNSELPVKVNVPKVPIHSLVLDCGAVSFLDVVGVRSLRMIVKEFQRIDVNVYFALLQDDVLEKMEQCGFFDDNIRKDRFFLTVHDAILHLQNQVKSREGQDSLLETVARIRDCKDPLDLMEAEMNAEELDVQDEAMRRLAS

Pendrin = target: T2, Pendrin (Homo sapiens, UniProt O43511); assay: Inhibition of human pendrin expressed in FRT cells co-expressing EYFP-HIF assessed as reduction in pendrin-mediated Cl(-)/r exchange incubated for 10 mins by pH-sensitive fluorescent probe BCECF-AM based fluorescence assay relative to control; type: cell-based
T2 sequence (O43511 whole entry): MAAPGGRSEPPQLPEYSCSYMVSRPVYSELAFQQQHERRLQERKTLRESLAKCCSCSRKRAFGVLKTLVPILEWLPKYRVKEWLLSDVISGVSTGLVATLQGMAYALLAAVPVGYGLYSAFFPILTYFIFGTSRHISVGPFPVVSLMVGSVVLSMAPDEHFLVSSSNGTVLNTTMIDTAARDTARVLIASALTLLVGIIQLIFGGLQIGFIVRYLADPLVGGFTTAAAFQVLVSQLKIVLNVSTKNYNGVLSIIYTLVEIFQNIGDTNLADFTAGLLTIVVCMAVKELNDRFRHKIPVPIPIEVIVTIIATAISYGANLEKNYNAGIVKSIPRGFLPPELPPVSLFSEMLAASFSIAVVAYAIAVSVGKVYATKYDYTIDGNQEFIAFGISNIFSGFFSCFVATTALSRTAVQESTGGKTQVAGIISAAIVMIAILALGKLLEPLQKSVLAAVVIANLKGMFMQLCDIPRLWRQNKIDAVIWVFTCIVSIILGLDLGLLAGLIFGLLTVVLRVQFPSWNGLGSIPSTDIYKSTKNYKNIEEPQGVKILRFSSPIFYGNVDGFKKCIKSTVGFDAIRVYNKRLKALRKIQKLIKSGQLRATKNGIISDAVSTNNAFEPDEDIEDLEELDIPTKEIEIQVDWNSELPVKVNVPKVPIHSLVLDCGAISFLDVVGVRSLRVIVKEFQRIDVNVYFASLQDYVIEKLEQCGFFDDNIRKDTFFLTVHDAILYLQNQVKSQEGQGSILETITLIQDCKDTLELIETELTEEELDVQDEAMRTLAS

Homo sapiens [1] = species: Homo sapiens; assay: Effect on airway surface liquid pH in NHBE cells at 25 uM by pH-sensitive fluorophore BCECF based fluorescence based assay; type: functional, cell-based
[2] = target: T3, Chloride anion exchanger (Homo sapiens) (UniProt P40879); assay: Inhibition of human SLC26A3 expressed in COS7 co-expressing EYFP-HIF assessed as reduction in SCN gradient
T3 sequence (whole entry): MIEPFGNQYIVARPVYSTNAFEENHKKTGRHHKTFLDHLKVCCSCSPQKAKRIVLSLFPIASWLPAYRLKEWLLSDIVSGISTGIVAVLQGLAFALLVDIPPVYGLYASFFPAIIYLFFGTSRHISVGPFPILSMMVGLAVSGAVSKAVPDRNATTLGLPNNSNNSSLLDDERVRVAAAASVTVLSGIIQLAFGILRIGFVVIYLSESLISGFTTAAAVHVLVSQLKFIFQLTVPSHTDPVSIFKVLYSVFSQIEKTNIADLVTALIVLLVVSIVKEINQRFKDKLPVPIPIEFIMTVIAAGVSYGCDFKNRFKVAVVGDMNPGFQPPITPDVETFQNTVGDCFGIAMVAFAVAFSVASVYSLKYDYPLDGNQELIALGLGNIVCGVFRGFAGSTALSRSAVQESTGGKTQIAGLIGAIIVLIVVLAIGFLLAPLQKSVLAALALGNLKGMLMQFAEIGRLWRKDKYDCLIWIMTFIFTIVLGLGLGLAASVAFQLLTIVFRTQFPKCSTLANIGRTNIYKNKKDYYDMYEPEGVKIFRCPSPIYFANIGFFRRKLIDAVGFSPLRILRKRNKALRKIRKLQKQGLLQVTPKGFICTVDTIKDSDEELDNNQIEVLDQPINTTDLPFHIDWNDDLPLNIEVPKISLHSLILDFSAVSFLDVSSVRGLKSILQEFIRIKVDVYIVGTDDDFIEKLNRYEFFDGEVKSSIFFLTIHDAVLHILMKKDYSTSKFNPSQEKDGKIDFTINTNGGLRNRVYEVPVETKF

Pendrin (Homo sapiens) = target: T4, Pendrin (Homo sapiens) (UniProt O43511); assay: Inhibition of pendrin in IL13-stimulated human bronchial epithelial cells assessed as reduction in gluconate gradient-induced intracellular alkalization at 25 uM; type: cell-based
T4 sequence (whole entry): T2 sequence (O43511 whole entry)

Homo sapiens [3] = species: Homo sapiens; assay: Effect on airway surface liquid pH in IL13-stimulated human CFBE at 25 uM by pH-sensitive fluorophore BCECF based fluorescence based assay; type: functional

Cc1n[nH]c(-c2cc(S(=O)(=O)NC3CCCc4ccccc43)c(C)s2)c1C (stereo unspecified) was tested. Which inhibition (Pendrin (Mus musculus)) did it give?
Its inhibition is “Dose-dependent effect”.

And the IC50 (Pendrin)?
Its IC50 is 8 µM.

How did the Activity (Homo sapiens [1]) turn out when Cn1nc(COc2cccc(F)c2)c2c1CCN(C(=O)Nc1ccc(Cl)cc1)C2 was run?
Its Activity is “inactive”.

And the inhibition [2]?
Its inhibition is “inactive”.

What about the inhibition (Pendrin (Homo sapiens)) of the same compound?
Its inhibition is “Active”.

What about the Activity (Homo sapiens [3]) of the same compound?
The Activity was “inactive”.
